# Experimental data reported in patent US20070015733A1, “Aryl Phosphate Derivatives of d4T having Activity Against Resistant HIV Strains” (Parker Hughes Institute, priority 1998, published 2007).
# Where two headings read alike, the source gives them in different places.
# How the values were obtained:
# HIV-1 (strain: HTLVIIIB) = assay: microbe, parasite or virus in culture; format: cell-based; conditions: PBMNC, read-out: PBMNC IC50 [RT]
# Description: (§1) Percent inhibition of viral replication was calculated by comparing the p24 and RT activity values from the test substance-treated infected cells with those from untreated infected cells. In parallel, the cytotoxicity of the compounds was examined using a microculture tetrazolium assay (MTA) of cell proliferation, as described.in the Zarling, Enrice, and Uckun articles Supra).
# (§2) Cellular Assays of Anti-HIV Activity and Cytotoxicity. […] Percent viral inhibition was calculated by comparing the RT activity values from the test substance-treated infected cells with RT values from untreated infected cells (i.e., virus controls).
# [1] = system: HIV-1 (HTLVIIIB) in TK-deficient CEM T-cells; assay: Inhibition of HIV-1 replication in TK-deficient CEM T-cells (p24 / RT activity); format: cell-based; conditions: TK-deficient CEM T-cells, read-out: CEM IC50 [RT]
# Description: as §1, §2
# HIV-1 HTLVIIIB = assay: microbe, parasite or virus in culture; conditions: Human immunodeficiency virus 1, PBMC
# Description: In vitro assays of anti-HIV-1 activity. Normal human peripheral blood mononuclear cells (PBMNC) from HIV-negative donors were cultured 72 hours in RPMI 1640 supplemented with 20% (v/v) heat-inactivated fetal bovine serum (FBS), 3% interleukin-2, 2 mM L-glutamine, 25 mM HEPES, 2 g/L NaHCO3, […], and […] prior to exposure to HIV-1 at a multiplicity of infection (MOI) of 0.1 during a 1 hour adsorption period at 37° C. in a humidified 5% CO2 atmosphere. Subsequently, cells were cultured in 96-well microtiter plates ([…]; 2×10^6 cells/mL) in the presence of various concentrations of d4T phosphoramidates and aliquots of culture supernatants were removed from the wells on the 7th day after infection for p24 antigen assays, as previously described (Uckun et al., 1998, Antimicrobial Agents and Chem., 42(2):383-388). The applied p24 enzyme immunoassay (EIA) was the unmodified kinetic assay commercially available from Coulter Corporation/Immunotech, Inc. (Westbrooke, Me.), which utilizes a murine mAb to HIV core protein coated onto microwell strips to which the antigen present in the test culture supernatant samples binds. Percent viral inhibition was calculated by comparing the p24 values from untreated infected cells (i.e., virus controls).
# The anti-HIV activity of the compounds was examined by evaluating their ability to inhibit HIV replication in peripheral blood mononuclear cells using previously described procedures (Uckun et al., 1998, Antimicrobial Agents and Chem., 42(2):383-388). Percent inhibition of viral replication was calculated by comparing the p24 antigen levels from the test substance-treated infected cells with those from vehicle-treated infected cells.
# Antiviral susceptibility assays. Phenotypic drug susceptibility studies of HIV-1 isolates and strains were performed by measuring the production of the p24 gag protein in peripheral blood mononuclear cells (PBMC) from seronegative healthy volunteers in the presence of increasing concentrations of the anti-HIV agent using the quantitative Coulter HIV-1 p24 antigen ezyme immunoassay (EIA) and HIV-1 p24 Antigen Kinetic Standard (Beckman Coulter), as previously described (Uckun, 1998, Antimicrobial Agents and Chemotherapy 37(4): 835-38). Informed consent was obtained from the blood donors according to DHHS guidelines using consent forms approved by the Institutional Review Board. In brief, PBMC were cultured for 72 h in RPMI 1640 medium (Gibco) supplemented with 20% (vol/vol) heat-inactivated fetal bovine serum, 5% human interleukin-2 (Zeptometrix), 2 mM L-glutamine, 25 mM HEPES, 2 g/L NaHCO3, 100 U/ml penicillin/streptomycin (Gibco), 50 μg/ml gentamicin (Gibco), and 5 μg/ml phytohemagglutinin-P (PHA-P) (Sigma) for 24-72 hours prior to exposure to HIV at a multiplicity of infection of 0.001-0.1 during a 1-h adsorbtion period at 37±1° C. in a humidified 5-7% CO2 atmosphere. Subsequently, cells were cultured in 96-well microtiter plates (100 μl/well; 2×10^6 cells/ml, triplicate wells) in the presence of the anti-HIV agents at 6-7 different concentrations ranging from 0.0001 μM to 100 μM, and 25 μL aliquots of culture supernatants were removed from the wells on day 6 after infection for p24 EIA, as previously described (Uckun, 1998, Antimicrobial Agents and Chemotherapy, 37(4):835-38). Controls included uninfected and untreated cells (background control) and infected but untreated (virus control) cells. The p24 EIA utilizes a murine monoclonal antibody to HIV core protein used to coat microwell strips to which the antigen present in the test culture supernatant samples binds. Percent inhibition of viral replication was calculated by comparing the p24 values from the test substance-treated infected cells with p24 values from untreated infected cells (i.e., virus controls). The IC50 values were determined using the Statview statistics program (SAS Institute, Inc.).
# [2] = system: NRTI-resistant recombinant HIV-1 isolates; assay: p24 assay, multi-NRTI-resistant recombinant HIV-1 clones; format: cell-based
# [3] = system: NRTI-resistant recombinant HIV-1 isolates; assay: RT activity assay, multi-NRTI-resistant recombinant HIV-1 clones; format: cell-based
# [4] = system: NRTI-resistant recombinant HIV-1 isolates; assay: Documented fold decreased susceptibility of recombinant HIV-1 clones; format: cell-based; conditions: for mean reduction in susceptibility: mean over 6 recombinant clones; for median reduction in susceptibility: median over 6 recombinant clones
# [5] = system: NRTI-resistant recombinant HIV-1 isolates; conditions: cited from earlier work
# [6] = unit not given in Table 5 (0.04 = 40 nM)
# [7] = Human immunodeficiency virus 1, read-out: IC50 (nM), p24, recombinant clone 1617-1 (151 complex)
# [8] = Human immunodeficiency virus 1, read-out: IC50 (nM), p24, recombinant clone 4755-5
# [9] = Human immunodeficiency virus 1, read-out: IC50 (nM), p24, recombinant clone 7295-1
# [10] = Human immunodeficiency virus 1, read-out: IC50 (nM), p24, recombinant clone 7324-1
# [11] = Human immunodeficiency virus 1, read-out: IC50 (nM), p24, recombinant clone 52252-1 in Table 18, 56252-1 in Tables 19 and 20 (K65R, 151 complex)
# [12] = Human immunodeficiency virus 1, read-out: IC50 (nM), p24, recombinant clone printed 52534-1 in Table 18, 52534-2 in Tables 19 and 20 (69 insertion complex)
# [13] = Human immunodeficiency virus 1, read-out: IC50 (nM), RT, recombinant clone 1617-1
# [14] = Human immunodeficiency virus 1, read-out: IC50 (nM), RT, recombinant clone 4755-5
# [15] = Human immunodeficiency virus 1, read-out: IC50 (nM), RT, recombinant clone 7295-1
# [16] = Human immunodeficiency virus 1, read-out: IC50 (nM), RT, recombinant clone 7324-1
# [17] = Human immunodeficiency virus 1, read-out: IC50 (nM), RT, recombinant clone 52534-2
# [18] = Human immunodeficiency virus 1, read-out: IC50 (nM), RT, recombinant clone 56252-1
# [19] = Human immunodeficiency virus 1, read-out: mean IC50, RT, mean over 6 multi-NRTI-resistant clones
compound,measurement,setting,value
COC(=O)C(C)NP(=O)(OCC1OC(n2cc(C)c(=O)[nH]c2=O)CC1N=[N+]=[N-])Oc1ccc(OC)cc1 (stereo not drawn) [Compound 5b],IC50,HIV-1 (strain: HTLVIIIB); [6],100 nM
same,IC50,[1]; Table 5,4100 nM
Nc1ccn([C@@H]2CS[C@H](CO)O2)c(=O)n1 [lamivudine],IC50,HIV-1 HTLVIIIB,40 ± 25 nM
same,IC90,HIV-1 HTLVIIIB,1820 ± 747 nM
same,IC50,[2]; [7],> 10000 nM
same,IC50,[2]; [8],> 10000 nM
same,IC50,[2]; [9],> 10000 nM
same,IC50,[2]; [10],800 nM
same,IC50,[2]; [11],> 10000 nM
same,IC50,[2]; [12],> 10000 nM
same,IC50,[3]; [13],> 10000 nM
same,IC50,[3]; [14],> 10000 nM
same,IC50,[3]; [15],> 10000 nM
same,IC50,[3]; [16],634 nM
same,IC50,[3]; [17],> 10000 nM
same,IC50,[3]; [18],7210 nM
same,IC50,[3]; [19],7970 ± 1540 nM
same,mean reduction in susceptibility,[4],215.5 fold
same,median reduction in susceptibility,[4],300 fold
O=c1[nH]cnc2c1ncn2[C@H]1CC[C@@H](CO)O1 [didanosine],mean reduction in susceptibility,[4],10.1 fold
same,median reduction in susceptibility,[4],2.9 fold
same,Fold decreased susceptibility,[5]; recombinant clone 1617-1,23 fold
same,Fold decreased susceptibility,[5]; recombinant clone 4755-5,2.4 fold
same,Fold decreased susceptibility,[5]; recombinant clone 7295-1,1.9 fold
same,Fold decreased susceptibility,[5]; recombinant clone 7324-1,1.7 fold
same,Fold decreased susceptibility,[5]; recombinant clone 52534-2,3.3 fold
same,Fold decreased susceptibility,[5]; recombinant clone 56252-1,28 fold
COC(=O)[C@H](C)NP(=O)(OC[C@@H]1CC[C@H](n2cc(C)c(=O)[nH]c2=O)O1)Oc1ccccc1 (stereo partly drawn) [Compound 2a],IC50,HIV-1 (strain: HTLVIIIB); Table 4,2100 nM
same,IC50,HIV-1 (strain: HTLVIIIB); [6],2100 nM
same,IC50,[1]; Table 4,7500 nM
same,IC50,[1]; Table 5,7500 nM
COC(=O)C(C)NP(=O)(OCC1CCC(n2cc(C)c(=O)[nH]c2=O)O1)Oc1ccc([N+](=O)[O-])cc1 (mixture of isomers) [Compound 2e],IC50,HIV-1 (strain: HTLVIIIB); Table 4,2000 nM
same,IC50,[1]; Table 4,22600 nM
CC(C)(C)NC(=O)[C@@H]1CN(Cc2cccnc2)CCN1C[C@@H](O)C[C@@H](Cc1ccccc1)C(=O)N[C@H]1c2ccccc2C[C@H]1O [indinavir],IC50,[2]; [7],20.5 nM
same,IC50,[2]; [8],9.4 nM
same,IC50,[2]; [9],17.2 nM
same,IC50,[2]; [10],21.8 nM
same,IC50,[2]; [11],9 nM
same,IC50,[2]; [12],36.5 nM
same,IC50,[3]; [13],5.2 nM
same,IC50,[3]; [14],4.8 nM
same,IC50,[3]; [15],1.4 nM
same,IC50,[3]; [16],5.7 nM
same,IC50,[3]; [17],12.2 nM
same,IC50,[3]; [18],3.7 nM
same,IC50,[3]; [19],5.5 ± 1.5 nM
3dT-5′-(para-bromophenyl methoxyalaninyl phosphate) [Compound 2d],IC50,HIV-1 (strain: HTLVIIIB); Table 4,1200 nM
same,IC50,HIV-1 (strain: HTLVIIIB); [6],1200 nM
same,IC50,[1]; Table 4,22800 nM
same,IC50,[1]; Table 5,22800 nM
COC(=O)C(C)NP(=O)(OCC1OC(n2cc(C)c(=O)[nH]c2=O)CC1N=[N+]=[N-])Oc1ccccc1 (stereo not drawn) [Compound 5a],IC50,[1]; Table 5,1700 nM
"Cc1cn([C@H]2CC[C@@H](CO)O2)c(=O)[nH]c1=O [Compound 3dT, 3′-deoxythymidine]",IC50,"HIV-1 (strain: HTLVIIIB); Human immunodeficiency virus 1, Table 4",700 nM
same,IC50,"[1]; Human immunodeficiency virus 1, T-cell, Table 4",91200 nM
same,IC50,"[1]; Human immunodeficiency virus 1, T-cell, Table 5",91200 nM
C[C@H](Cn1cnc2c(N)ncnc21)OCP(=O)(O)O [tenofovir],mean reduction in susceptibility,[4],4.9 fold
same,median reduction in susceptibility,[4],3.3 fold
same,Fold decreased susceptibility,[5]; recombinant clone 1617-1,2.4 fold
same,Fold decreased susceptibility,[5]; recombinant clone 4755-5,2.3 fold
same,Fold decreased susceptibility,[5]; recombinant clone 7295-1,1.1 fold
same,Fold decreased susceptibility,[5]; recombinant clone 7324-1,8.1 fold
same,Fold decreased susceptibility,[5]; recombinant clone 52534-2,4.2 fold
same,Fold decreased susceptibility,[5]; recombinant clone 56252-1,11 fold
Nc1nc(NC2CC2)c2ncn([C@H]3C=C[C@@H](CO)C3)c2n1 [abacavir],mean reduction in susceptibility,[4],40 fold
same,median reduction in susceptibility,[4],14.9 fold
same,Fold decreased susceptibility,[5]; recombinant clone 1617-1,>100 fold
same,Fold decreased susceptibility,[5]; recombinant clone 4755-5,7.7 fold
same,Fold decreased susceptibility,[5]; recombinant clone 7295-1,6.1 fold
same,Fold decreased susceptibility,[5]; recombinant clone 7324-1,4.2 fold
same,Fold decreased susceptibility,[5]; recombinant clone 52534-2,22 fold
same,Fold decreased susceptibility,[5]; recombinant clone 56252-1,>100 fold
COC(=O)C(C)NP(=O)(OCC1CCC(n2cc(C)c(=O)[nH]c2=O)O1)Oc1ccc(F)cc1 (mixture of isomers) [Compound 2c],IC50,HIV-1 (strain: HTLVIIIB); Table 4,3100 nM
same,IC50,[1]; Table 4,32700 nM
